Consider seven compounds from article PMC12150326 (The Journal of Organic Chemistry, 2025).

Like-named read-outs stand apart in the source and are kept apart here.

The conditions of data set [1]: cited from earlier work.
Data set [2] concerns the target colchicine site of bovine brain tubulin. It counts as binding. The following applies: for Kd: tubulin binding constant, 25 °C, read-out: Kd. As to the method: Inhibition of this fluorescence increase was measured and converted to K d for the test compound as described.
Another data set has as its system bovine brain tubulin. Description: Tubulin polymerization inhibition. It counts as biochemical. The following applies: 10 μM tubulin; for Polymerization Inhibition (%) 3.3 μM: 3.3 μM compound; for Polymerization Inhibition (%) 33 μM: 33 μM compound. As to the method:
Inhibition of tubulin polymerization was determined as described previously. In brief, 10 μM bovine brain tubulin (PurSolutions, LLC (puresoluble.com)) was incubated under conditions strongly promoting polymerization of tubulin (1 M NaGlutamate, 0.1 M Mes (Morpholinoethanesulfonic acid), 1 mM MgCl2, 0.5 mM GTP, pH 6.9), in the absence or presence of 3.3 or 33 μM test compound, incubated for 30 min at 37 °C, then centrifuged at 100,000g for 8 min, and the top 3/4 of the supernatant removed. Protein concentration was measured, and polymerization was determined as pelletable protein lost from the supernatant.

The next data set has as its system PC3. The data set can be described thus: Cell-growth inhibition (CellTiter). Format: cell-based, human. The following applies: Homo sapiens, PC-3, 72 h, read-out: Cell Growth Inhibition GI50 ± SE. As to the method: (§1) Inhibition of cell growth was determined by using standard procedures. Cell lines were obtained from the NCI anticancer drug screen and maintained in DMEM medium supplemented with 10% fetal bovine serum. Growing cells were exposed to serial dilutions of each compound for 3 days. Cell growth was determined with CellTiter Assay Reagent (Promega), and growth parameters, including inhibition of growth, were measured by using the methods specified by the manufacturer.

The next data set deals with M14. Description: Cell-growth inhibition (CellTiter). The following applies: Homo sapiens, M14, 72 h, read-out: Cell Growth Inhibition GI50 ± SE. It counts as cell-based, human. As to the method: as §1
Another data set has as its system A549. The data set can be described thus: Cell-growth inhibition (CellTiter). Format: cell-based, human. The following applies: Homo sapiens, A549, 72 h, read-out: Cell Growth Inhibition GI50 ± SE. As to the method:
as §1

Data set [3] can be described thus: Experimental rotational energy barrier (thermal racemization, chiral HPLC). It counts as physicochemical. As to the method:
(aR)-6 and (aS)-6 were readily separable from one another and racemic iso -6 through the use of a polysaccharide-based chiral column (Diacel IA column) fitted to an automated medium-pressure liquid chromatography unit (Biotage Isolera Prime). Racemization was observable after heating a solution of either enantiopure (aR)- or (aS)-6 at 135 °C in xylenes over a few hours, and the rate of enantiomerization was extrapolated using the Eyring equation (ΔG ^‡ = 31.2 ± 0.3 kcal/mol). (aR)- and (aS )-iso-6 were separable in an analogous fashion using a chiral IC polysaccharide column. […] Thus, we can project that the rotational energy barrier is […] 37 kcal/mol. However, a computationally determined rotational barrier for iso -6 was 33.5 kcal/mol, which is roughly 3 kcal/mol more than that calculated for 6. One potential explanation for this notable difference in configurational stability is the greater double bond character of the methyl-bearing C^4–C^5 carbon of iso -6 in comparison to the C^5–C^6 in 6, as this would both shorten and rigidify this steric-bearing bond (see Scheme A/B for details). […] Studies have previously described differences in rotational barriers of DAAC (2) and its analogous isomer that, while less dramatic, are consistent with this trend (ΔG ^‡ = 22.1 vs 23.4 kcal/mol). […]
IV. Experimental Profiling of Dihedral Angles
Rotational Energy Barrier Determination. A small spatula tip (~0.2 mg) of either (aR)-6 (aka, (aR)-MT-MTC) or (aS)-6 (aka, (aS)-MT-MTC) was diluted in 2 mL o-xylenes in a large vial containing a stir bar. The solution was heated to 135 °C open to air (temperature set to 135 °C, but fluxuated between 134 and 138 °C).
~100 µL aliquots were extracted from solution using a syringe fitted with a long disposable needle at various time intervals and diluted into automated sample vials containing 500 µL CH2Cl2 to rapidly cool. These samples were monitored on Agilent with an analytical HPLC IA column, using 0 – 40% iPrOH in Hexanes gradient over 30 minutes at a flow rate of 0.5 mL/min, and a pressure of roughly 5 bar). Samples eluted approximately 20 minutes into run, with (aR)-6 eluting first, followed by (aS)-6. Three separate runs were carried out, two of which monitored racemization of (aS)-6, and one of which monitored racemization of (aR)- […]
Integration of the HPLC traces were used to determine enantiomeric excess by calculating the difference between the two enantiomers and dividing that by the sum of the two enantiomers, and then multiplying that […]
provided a slope (corresponding to kracemization), and dividing this number […] providing kenantiomerization (or kent in equation below), with units inverse seconds. A summary of data follows (Table S5), and representative chromatograms illustrated in section VI.

`COc1cc2c(c(OC)c1OC)-c1ccc(OC)c(=O)cc1CCC2` [compound 2, desacetamidocolchicine]: the “ΔG‡ exp, rotational barrier” value in data set [1] was 22.1 kcal/mol. Also, the “t1/2 rt of racemization” value in data set [1] (room temperature ref 19) was ~ 0.5 h.

As to `COc1ccc(-c2ccc(OC)c(=O)cc2)c(OC)c1OC` [compound 3, 2-methoxy-5-(2,3,4-trimethoxyphenyl)-2,4,6-cycloheptatrien-1-one, reference compound], the Kd in data set [2] stood at 3.2 µM. Besides, in the data set with bovine brain tubulin, the “Polymerization Inhibition (%) 3.3 μM” value was 100%. The “Polymerization Inhibition (%) 33 μM” value with bovine brain tubulin amounted to 100%. Further, the results for the GI50 in the data set on PC3, in the data set on M14 and in the data set on A549 were 0.03 ± 0.005 µM, 0.03 ± 0.007 µM and 0.03 ± 0.001 µM, respectively.

Turning to `COc1ccc(-c2ccc(OC)c(=O)cc2C)c(OC)c1OC` [compound 4, 2-Methoxy-6-methyl-5-(2,3,4-trimethoxyphenyl)cyclohepta-2,4,6-trien-1-one], in data set [2], the “binding constant fold less potent than 3” value is 5–30 fold and the dissociation constant Kd came to 20 µM. Further, in the data set with bovine brain tubulin, the “Polymerization Inhibition (%) 3.3 μM” value was 0% and the “Polymerization Inhibition (%) 33 μM” value was 100%. Further, the GI50 with PC3 (PC3, 3 days) was determined as 0.19 ± 0.06 µM. Besides, in the data set with M14 (M14, 3 days), the concentration for 50% growth inhibition (GI50) was 0.25 ± 0.025 µM. For the same compound, the GI50 with A549 (A549, 3 days) came to 0.3 ± 0.01 µM.

Take `COc1cc(C)c(-c2ccc(OC)c(=O)cc2)c(OC)c1OC` [compound 5, 2-Methoxy-5-(2,3,4-trimethoxy-6-methylphenyl)cyclohepta-2,4,6-trien-1-one]: in data set [2], the “binding constant fold less potent than 3” value is 5–30 fold and the dissociation constant (Kd) was found to be 14 µM. Further, in the data set with bovine brain tubulin, the “Polymerization Inhibition (%) 3.3 μM” value is 0% and the “Polymerization Inhibition (%) 33 μM” value was 100%. For the same compound, the concentration for 50% growth inhibition (GI50) with PC3 (PC3, 3 days) came out at 0.22 ± 0.04 µM. The GI50 in the data set on M14 (M14, 3 days) was 0.3 ± 0.01 µM. For the same compound, the GI50 in the data set on A549 (A549, 3 days) turned out to be 0.3 ± 0.01 µM.

Turning to `COc1cc(C)c(-c2ccc(OC)c(=O)cc2C)c(OC)c1OC` [compound 6, 2-Methoxy-6-methyl-5-(2,3,4-trimethoxy-6-methylphenyl)cyclohepta-2,4,6-trien-1-one], the “ΔG‡ of enantiomerization, experimental” value in data set [3] (135 °C in xylenes, Eyring equation) was 31.2 ± 0.3 kcal/mol.

As to `COc1ccc(-c2ccc(=O)c(OC)cc2C)c(OC)c1OC` [iso-4], in data set [2], the Kd was 230 µM. Moreover, the “Polymerization Inhibition (%) 3.3 μM” value in the data set on bovine brain tubulin came to 0%. In the data set on bovine brain tubulin, the “Polymerization Inhibition (%) 33 μM” value worked out at 0%. Besides, the GI50 with PC3 (PC3, 3 days) is above 3 µM; in the data set with M14 (M14, 3 days) it was above 3 µM; with A549 (A549, 3 days), above 3 µM.

`COc1cc(C)c(-c2ccc(=O)c(OC)cc2C)c(OC)c1OC` [iso-6, 2-Methoxy-4-methyl-5-(2,3,4-trimethoxy-6-methylphenyl)cyclohepta-2,4,6-trien-1-one]: in data set [3] (145 °C for 10 h), the racemization on heating result is “no racemization was observed”. The “projected rotational energy barrier” value in data set [3] (from absence of racemization at 145 °C, 10 h) turned out to be 37 kcal/mol.
